Ends that are not written are not given here.
Tests used:
[1] = in vivo; settings: for bioavailability: 2 mg; for PK Profile: Table 40
Protocol: (§1) Animal Studies in Rats. […] In vivo PK studies were performed in CD rats (Charles River Laboratories) according to IACUC-approved Animal Protocols. Each dosing formulation was prepared prior to the experiments. The patch was manufactured according to dry patch manufacturing procedure. The animals for transdermal applications were shaved 1 day before the dosing date. The transdermal microporation was applied using the Applicator and Porator. Then, the patch was placed to cover the porated area for 1 day or a designated duration. After the last blood sampling, the patch was collected, and the application site was wiped by paper or cotton to recover the remaining drug on the skin. The blood samples were collected from the tail vein and transferred into K2-EDTA tube at the designated sampling time. The samples were centrifuged at 4° C., and then plasma samples were obtained. All samples were stored at −80° C. freezer until bioassay.
The plasma samples were stayed at room temperature for 30 minutes. The plasma (50 μL) was transferred into a 2 mL Eppendorf tube (Protein LoBind), then add 50 μL of Acetonitrile/DMSO (4:1, v/v), and vortex the tube for a couple of seconds. The samples were centrifuged for 15 minutes at 3700 rpm, 4° C. The 150 μL of mobile phase A (0.1% formic acid in water) were put into a new tube, then 50 μL of the supernatant were transferred into the tube and the samples were vortexed for 5 minutes. The supernatant was pulled out and the solution was filtered through a 0.20 μm PTFE membrane into an autosampler vial (LCMSMS).

[2] = p3-Alcβ9-19 in mouse plasma (sELISA) after transdermal microporation patch or subcutaneous injection; type: in vivo, wild-type mice; settings: mice plasma
Description: (§2) Animal Studies in Mice. […] The hair was removed prior to the experiments. […] Exp. 21 (2008).
sELISA method for p3-Alcβ9-19 Analysis.

[3] = in vivo
Description: as §2
IgG was purified with antigen-coupled resin and conjugated to biotin. Horseradish peroxidase-conjugated streptavidine was from Amersham/GE Healthcare (Cat #RPN1051, Little Chalfont, UK), and the tetramethylbenzidine (TMB) microwell peroxidase substrate system was from SeraCare Life Sciences Inc. (Cat #5120-0075, Milford, MA, USA). The mice were anesthetized by using 1% isoflurane, and CSF was collected from the cisterna magna in mice as described above, and then mice were sacrificed.
Dis. (2014) 39, 861-870, p3-Alcβ37- and p3-Alcβ40-specific sELISA systems, described in Hata et al “Decrease in p3-Alcβ37 and p3-Alcβ40, products of Alcadeinβ generated by γ-secretase cleavages, in aged monkeys and patients with Alzheimer's disease” Alzheimers Dement TRCI (2019) 5, 740-750.
The next day, the non-binding antibody was removed with wash buffer (0.05% Tween-20 in PBS). The plasma and CSF were diluted 200-fold and 20-fold with EIA buffer (1% BSA, 0.05% Tween-20), respectively. The sample solution was added to 96 well plates and stayed overnight at 4° C. The next day, after washing with wash buffer, purified biotinylated IgG dissolved in PBS was added to […] in each well, and the mixture was kept overnight at 4° C. The next day, the unreacted antibody was washed with wash buffer, streptavidin-HRP (1/5000 in PBS) was added, and the reaction was carried out at 4° C. for 6 to 8 hours. After washing with Wash buffer, TMB color-developing substrate was added, and the mixture was reacted at room temperature for 30 minutes under light-protection. The color development was stopped by adding 1 N H2SO4, and the samples were measured by a plate reader at 450 nm.

[4] = rats; reducing sugar formulation (Table 22); 24 hours after application; without microporation
Protocol: as §1, with “The transdermal microporation was applied using the Applicator and Porator.” left out

[5] = mouse, sc, 30 ug, subcutaneous injection 30 μg
[6] = mouse, cerebrospinal fluid, sc, 30 ug

Sequence: HRGHQPPPEMA [p3-Alcβ9-19]
- bioavailability ([1]; CD, rat, plasma, iv): 100%
- bioavailability ([1]; CD, rat, plasma, oral): 0%
- bioavailability ([1]; CD, rat, plasma, other: nasal): 0%
- bioavailability ([1]; CD, rat, plasma, other: passive transdermal): 0%
- Tmax ([1]; CD, rat, plasma, other: transdermal microporation): ~60 min
- bioavailability ([1]; CD, rat, plasma, subcutaneous): 120 to 275%
- aBA (absolute bioavailability) vs IV (2 mg/body) ([1]; Table 33, optimized formulations for immediate delivery, rats, 400 density, 4 mJ/filament): about 2000%
- PK Profile ([1]; Intravenous injection): Bolus absorption
- PK Profile ([1]; Nasal): No absorption
- PK Profile ([1]; Oral): No absorption
- PK Profile ([1]; Passive Transdermal): No absorption
- PK Profile ([1]; Subcutaneous injection): Bolus absorption
- Absorption ([1]; rats, 5 mg/head, oral, nasal, or passive transdermal routes): No absorption
- Time by which blood concentrations disappeared ([1]; rats, SC injection): ≤ 1 h
- Relationship between p3-Alcβ9-19 dose and AUC, FIG. 16 ([1]; rats, immediate delivery, up to 50 mg of p3-Alcβ9-19 (tested dose)): liner dose-dependency
- PK profiles ([1]; rats, intravenous (IV) and subcutaneous (SC) injections): rapid absorption and quick elimination
- AUC and Cmax versus p3-Alcβ9-19 dose, FIG. 19A/19B ([1]; rats, optimized patch): increased p3-Alcβ9-19 dose-dependently
- Relationship between p3-Alcβ9-19 dose and AUC, FIG. 17 ([1]; rats, sustained delivery, up to 25 mg of p3-Alcβ9-19 (tested dose)): liner dose-dependency
- BA (relative bioavailability) vs SC (30 μg/body) ([2]; subcutaneous injection 30 μg (reference)): 100%
- Cmax [2, 5]: 25.5 ± 12.5 ng/mL
- Tmax [2, 5]: 18.8 min
- AUC(0-t) ([2]; mouse, sc, 30 ug, subcutaneous injection 30 μg, read-out: AUC0-360 (converted)): 9.84 ng·h/mL
- BA (relative bioavailability) vs SC (30 μg/body) ([3]; mice CSF, subcutaneous injection 30 μg (reference)): 100%
- AUC(0-t) [3, 6]: 5.01 ng·h/mL
- Cmax [3, 6]: 14.9 ± 10.7 ng/mL
- Tmax [3, 6]: 15 min
- p3-Alcβ9-19 recovered (drug residual) [4]: about 100%

From patent US20250352494A1, “TRANSDERMAL DELIVERY DEVICE FOR PEPTIDE DELIVERY AND METHODS OF USE” (PassPort Technologies, Inc., priority 2022, published 2025)
